Experiments:
Type in all cases: cell-based
SKOV3 cells = experiment: Boyden chamber chemotaxis/migration of SKOV3 cells; settings: SKOV3
Experimental: A2780 (FIG. 10a) and SKOV3 (FIG. 10b) cells were incubated with the indicated concentrations of Å6 peptide for 30 min at 37° C. Aliquots representing 6,000 cells were placed on quadruplicate, CnI-coated filters (8 μm pores) in Boyden chambers and the cells allowed to migrate overnight in response to 10 ng/ml VEGF in NIH3T3-conditioned media containing the indicated concentrations of Å6. Upon completion of migration, the apical surfaces of the membranes were wiped clean and the migrating cells on the basal surface were stained with Geimsa stain and the cells present in representative fields of the membranes counted. Data represent the averages+/−standard deviations obtained from the replicate filters. […] This provides further confirmation that CD44 is the target for the Å6 peptide.
SKOV3 cells are harvested by trypsinization and washed once with RPMI−0.5% BSA. Next, the cells are re-suspended in RPMI+0.5% BSA @ 6E4/mL (6000 cells/100 μL). The peptide is pre-treated with 500 μL of cells added to 500 μL peptide NASAPPEE (2× concentration, final conc. at 100, 10, 1, 0.1, 0.01, 0.001 uM) and the mixture incubated 30 minutes at 37° C., under 5% CO2. The Boyden chamber is assembled by: Placing in the bottom chambers: 220 μL of serum/BSA free DMEM or NIH3T3CM+10 ng/ml VEGF or NIH3T3CM+10 ng/ml VEGF+peptide. Place 8 μm filters on the top of the bottom chambers. The 8 μm filters are coated with 1 mg/ml collagen I at 4° C. overnight, washed with PBS twice, air dry before use. Add 200 μL of cells with or without peptide pretreatment to the top of Boyden chamber. Note that the peptide is in both top and bottom chambers. Cells migrate overnight at 37° C., under 5% CO2 in incubator. Next, Boyden chambers are disassembled the and filters collected. The cells on the filters after collection are treated with −20° C. methanol for 3 minutes at room temperature and stained with 30% Geimsa for 7 minutes at room temperature, and washed with water twice. The filters are mounted on slides, air dried and the cells counted.
Cell numbers were obtained by counting the cells in four fields of filters using a 40× objective. The cells migrating into the bottom chambers were also counted as follows: a) 200 μL fluid in the bottom chamber was transferred to a well of 96-well plate; b) The plate was centrifuged at 1200 rpm for 5 minutes; c) 180 μL of supernatant was removed; d) The cell pellet was resuspended with the remaining 20 μL fluid and the cells counted using a hemocytometer. […] This compares favorably to the Å6 peptide which is effective between 5 μM and 100 nM.

FAK = FAK phosphorylation in SKOV3 cells, immunoblot and densitometry; settings: SKOV3, all conditions; Y397, Y576/577, Y925
Experimental: (§1) Cells were detached from their culture vessels by brief trypsinization, suspended in complete media and centrifuged at 250×g for 10 min at room temperature. The cell pellets were suspended in Dulbeco's phosphate buffered saline (DPBS) and re-centrifuged for a total of three washes. The cells were then re-suspended at 3.33E5/ml in 24 ml of either RPMI containing 0.5% BSA (Sigma Chem. Co. #A0336) (RPMI/BSA) or the conditioned media of growing NIH3T3 fibroblasts (10% FBS in DMEM) supplemented with 10 ng/ml vascular endothelial growth factor (VEGF) (CMN). The cells were then treated with or without 100 ug/ml soluble hyaluronic acid (HA; human umbilical, Calbiochem #385902) for 30 min at 37° C. under 5% CO2. Aliquots representing 2E6 cells were then plated into 10 cm culture dishes and A6 added to yield final concentrations of 0, 10, 100 and 1000 nM. The cells were cultured overnight (18 hr) at 37° C. under 5% CO2.
(§2) After 18 hr of treatment, the media were aspirated from the 10 cm dishes and saved. The plates were washed 3 times with 4 ml of ice-cold DPBS which were pooled with the reserved non-adherent cells. The non-adherent cells were centrifuged at 250×g for 10 min at 4° C., washed twice with cold DPBS, drained and lysed in 50 ul of cold RIPA buffer (ThermoScientific #89901) containing cocktails of broad spectrum phosphatase inhibitors (Calbiochem #524625; used at 2× final concentration) and protease inhibitors (Sigma #P8340) (RIPA/inh.). The 10 cm dishes were drained of remaining wash and the adherent cells lysed by scraping in 200 μL of cold RIPA/inh. For each test condition, the lysates of the non-adherent and adherent populations were combined, vortexed and then centrifuged at 14,000 rpm at 4° C. for 20 min. Aliquots of the cleared lysates were frozen at −80° C. immediately. A small aliquot was reserved for total protein analysis using a BCA Protein Assay Kit (Calbiochem #71285-3).
(§3) Samples representing 20 μg of total protein of each lysate were solubilized in the presence of 50 mM Tris pH 6.8, 10% glycerol, 2% SDS and 100 mM DTT for 5 min at 95° C. and then loaded onto 10-20% acrylamide gels (BioRad #345-0044, Tris-HCl, 1 mm, 26 well, 15 μL/well). Electrophoresis was performed using Laemli electrophoresis buffer (0.1% SDS, 25 mM Tris, 192 mM glycine) at 200 V, constant voltage, for one hour. Upon completion of electrophoresis, the proteins were transferred to Immun-Blot PVDF membranes (BioRad #162-0238) in ice-cold 20% methanol in 25 mM Tris, 192 mM glycine for 2 hr at 0.5 Amps, constant current/blotting apparatus. […]
(§4) The integrated densities (id) of the bands of interest were measured using Image J software (NIH). […]

ERK 1/2 = ERK 1/2 phosphorylation (T202/Y204) in SKOV3 cells, immunoblot; settings: basal media (RPMI/BSA)
Experimental: as §1, §2
(§5) Samples representing 20 μg of total protein of each lysate were solubilized in the presence of 50 mM Tris pH 6.8, 10% glycerol, 2% SDS and 100 mM DTT for 5 min at 95° C. and then loaded onto 10-20% acrylamide gels (BioRad #345-0044, Tris-HCl, 1 mm, 26 well, 15 μL/well). Electrophoresis was performed using Laemli electrophoresis buffer (0.1% SDS, 25 mM Tris, 192 mM glycine) at 200 V, constant voltage, for one hour. Upon completion of electrophoresis, the proteins were transferred to Immun-Blot PVDF membranes (BioRad #162-0238) in ice-cold 20% methanol in 25 mM Tris, 192 mM glycine for 2 hr at 0.5 Amps, constant current/blotting apparatus. The membranes were then cut vertically between molecular weight markers and in half at the 64 kDa marker to generate pieces for screening of higher molecular weight proteins (e.g., FAK) and lower molecular weight proteins (e.g., MEK and GAPDH). The blots were then blocked for a minimum of 4 hrs at room temperature in 3% bovine serum albumin (Sigma A0336) in 50 mM Tris, pH 7.4, 145 mM NaCl, 0.05% Tween-20 (TTBS) containing 0.05% sodium azide.
Upon completion of the primary antibody incubation, the blots were washed three times for 10 min in TTBS and then incubated with 1/25,000 dilutions of peroxidase-conjugated donkey anti-mouse IgG (Jackson ImmunoResearch #715-035-150) or peroxidase-conjugated donkey anti-rabbit IgG (Jackson ImmunoResearch #711-035-152) in TTBS containing 3% BSA for one hour at room temperature. […]

MEK = MEK phosphorylation (S217/221) in SKOV3 cells, immunoblot and densitometry
Experimental: as §1, §2, §3, §4

PKCalpha = PKCalpha phosphorylation in SKOV3 cells, immunoblot
Experimental: as §1, §2
as §5, with “The blots were then blocked for a minimum of 4 hrs at room temperature in 3% bovine serum albumin (Sigma A0336) in 50 mM Tris, pH 7.4, 145 mM NaCl, 0.05% Tween-20 (TTBS) containing 0.05% sodium azide.” left out

Substance | cell migration inhibition, lower end of effective concentration range (SKOV3 cells) | cell migration inhibition, upper end of effective concentration range (SKOV3 cells) | pFAK/FAK ratios (FAK) | pERK/Erk (ERK 1/2) | total MEK levels (MEK) | pMEK/MEK (MEK; under all conditions) | pPCKa/PKCa (PKCalpha)
NASAPPEE (peptide which potentiates the binding of CD44 polypeptide expressing cells to hyaluronic acid (HA)) [corresponds to amino acids 120-127 of CD44] | 1 nM | 100 µM |  |  |  |  | 
hyaluronic acid [HA, reference compound] |  |  | reduced | increased | appears to have decreased | increased | appears to have enhanced

From US8697629B2, “Modulation of intracellular signaling” (Angstrom Pharmaceuticals, Inc., priority 2010, dated 2014)
